Data taken from patent EP0326331B1, “Substituted quinolines and cinnolines” (Dow AgroSciences LLC, priority 1988, dated 1989).

Legend:
Type in all cases: in vivo
[1] = test system: Septoria tritici (leaf blotch); experiment: Test 1 greenhouse foliar spray screen, leaf blotch on wheat; conditions: Zymoseptoria tritici; Test 1, foliar spray on wheat; disease control rating at 400 ppm / 100 ppm; read-out: LEAF BLOT
[2] = test system: Erysiphe graminis tritici (powdery mildew); experiment: Test 1 greenhouse foliar spray screen, powdery mildew on wheat; conditions: Blumeria graminis, foliar, Test 1, foliar spray on wheat; disease control rating at 400 ppm / 100 ppm; read-out: POWD MDEW
[3] = test system: Venturia inaequalis (apple scab); experiment: Test 1 greenhouse foliar spray screen, apple scab on apple seedling; conditions: Venturia inaequalis; Test 1, foliar spray on apple seedling; disease control rating at 400 ppm / 100 ppm; read-out: APPL SCAB
[4] = test system: Pyricularia oryzae (rice blast); experiment: whole plant or invertebrate; conditions: Pyricularia oryzae, foliar, read-out: RICE BLAST, Test 1, foliar spray on rice; disease control rating at 400 ppm / 100 ppm
Dawson-hop aphid = experiment: Field trials against pest species; conditions: field trial, host hops
Experimental: (§1) 4-[2-[4-(t-Butyl)phenyl]ethoxy]-8-fluoroquinoline (Example 221) was evaluated in a number of field trials. […]

pea aphid = experiment: Field trials against pest species; conditions: field trial
Experimental: as §1

thrip = experiment: Field trials against pest species; conditions: field trial, host privet
Experimental: as §1

cotton aphid = experiment: Field trials against pest species; conditions: field trial, host cotton
Experimental: as §1

apple aphid = experiment: Field trials against pest species; conditions: field trial, host apples
Experimental: as §1

tarnished plant bug = experiment: Field trials against pest species; conditions: field trial, host alfalfa (Lucerne)
Experimental: as §1

twospotted spider mite = experiment: Field trials against pest species; conditions: field trial, host broccoli
Experimental: as §1

grape thrip = experiment: Field trials against pest species; conditions: field trial, host grape (European)
Experimental: as §1

wheat aphid = experiment: Field trials against pest species; conditions: field trial, host wheat
Experimental: as §1

potato leaf hopper = experiment: Field trials against pest species; conditions: field trial, host alfalfa (Lucerne)
Experimental: as §1

bean aphid = experiment: Field trials against pest species; conditions: field trial, host bean, faba broad
Experimental: as §1

grape leafhopper = experiment: Field trials against pest species; conditions: field trial, host grape (European)
Experimental: as §1

rosy apple aphid = experiment: Field trials against pest species; conditions: field trial, host apples
Experimental: as §1

yellow hickory aphid = experiment: Field trials against pest species; conditions: field trial, host pecan nut
Experimental: as §1

European red mite = experiment: Field trials against pest species; conditions: field trial, host apples
Experimental: as §1

white apple leafhopper = experiment: Field trials against pest species; conditions: field trial, host apples
Experimental: as §1

greenhouse thrip = experiment: Field trials against pest species; conditions: field trial, host azaleas
Experimental: as §1

mites = experiment: Field trials against pest species; conditions: field trial, host apples
Experimental: as §1

green peach aphid = experiment: Field trials against pest species; conditions: field trial
Experimental: as §1

apple rust mite = experiment: Field trials against pest species; conditions: field trial, host apples
Experimental: as §1

green cloverworm = experiment: Field trials against pest species; conditions: field trial, host alfalfa (Lucerne)
Experimental: as §1

[5] = test system: Puccinia recondita tritici (leaf rust); experiment: Test 1 greenhouse foliar spray screen, leaf rust on wheat; conditions: Puccinia recondita, foliar, Test 1, foliar spray on wheat; disease control rating at 400 ppm / 100 ppm
[6] = test system: southern armyworm (Spodopetra eridania Cramer); experiment: Mite/insect screen, SAW; conditions: Spodoptera eridania, foliar, percent mortality, foliar spray on squash, read-out: SAW RESULTS %
Summary of the method: (§2)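 Percent mortality was scored after standard exposure periods, following spraying of leaves to runoff (both surfaces, 10 psi, 1 h drying) with water dilutions of compound in emulsifier-containing acetone/alcohol (50:50). Armyworms received excised treated leaves in dishes.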

[7] = test system: Cercospora beticola (leaf spot); experiment: Test 1 greenhouse foliar spray screen, leaf spot on sugar beet; conditions: Cercospora beticola; Test 1, foliar spray on sugar beet; disease control rating at 400 ppm / 100 ppm
Erysiphe sp. = experiment: Field tests against plant pathogens; conditions: field test, crop sugar beet
From the text: Selected compounds were field tested against a variety of plant pathogens. […]

[8] = test system: Twospotted spider mites (Tetranychus urticae Koch); experiment: Mite/insect screen, SM
Summary of the method: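 Read-out: percent mortality after standard exposure periods. Test solutions were water dilutions of compound dissolved in acetone/alcohol (50:50) with emulsifier blends; leaves were sprayed to runoff on both surfaces and air-dried for one hour before exposure.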

[9] = test system: Botrytis cinerea (gray mold); experiment: Test 1 greenhouse foliar spray screen, gray mold on grape berries; conditions: Botrytis cinerea, foliar; Test 1, spray on grape berries; disease control rating at 400 ppm / 100 ppm
[10] = test system: melon aphids (Aphis gossypii Glover); experiment: Mite/insect screen, MA; conditions: Aphis gossypii, foliar, percent mortality, foliar spray on squash, read-out: MA RESULTS %
Summary of the method: as §2

[11] = test system: Pseudoperonospora cubensis (downy mildew); experiment: Test 1 greenhouse foliar spray screen, downy mildew on squash
corn rootworm = experiment: Mite/insect screen, CRW; conditions: percent mortality, read-out: CRW RESULTS %
Summary of the method: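 Corn rootworm mortality (%) was evaluated following standard exposure times. Test material was emulsified by dissolution in acetone/alcohol (1:1) containing sulfonate/nonionic emulsifier blends TOXIMUL R (23 g/L) and TOXIMUL S (13 g/L), and water-diluted to the indicated doses.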

[12] = summary statement in the description

CC(C)(C)c1ccc(CCOc2ccnc3c(F)cccc23)cc1 [Example 221, 4-[2-[4-(t-butyl)phenyl]ethoxy]-8-fluoroquinoline]
pest or weed control at 400 ppm [1]: 90 to 100%
pest or weed control at 400 ppm [2]: 20 to 89%
pest or weed control at 400 ppm [3]: 20 to 89%
pest or weed control at 400 ppm [4]: 0 to 19%
pest species against which it showed activity (Dawson-hop aphid): Dawson-hop aphid
pest species against which it showed activity (pea aphid; host alfalfa (Lucerne)): pea aphid
pest species against which it showed activity (pea aphid; host pea, garden (English)): pea aphid
pest species against which it showed activity (thrip): thrip
pest species against which it showed activity (cotton aphid): cotton aphid
pest species against which it showed activity (apple aphid): apple aphid
pest species against which it showed activity (tarnished plant bug): tarnished plant bug
pest species against which it showed activity (twospotted spider mite): twospotted spider mite
pest species against which it showed activity (grape thrip): grape thrip
pest species against which it showed activity (wheat aphid): wheat aphid
pest species against which it showed activity (potato leaf hopper): potato leaf hopper
pest species against which it showed activity (bean aphid): bean aphid
pest species against which it showed activity (grape leafhopper): grape leafhopper
pest species against which it showed activity (rosy apple aphid): rosy apple aphid
pest species against which it showed activity (yellow hickory aphid): yellow hickory aphid
pest species against which it showed activity (European red mite): European red mite
pest species against which it showed activity (white apple leafhopper): white apple leafhopper
pest species against which it showed activity (greenhouse thrip): greenhouse thrip
pest species against which it showed activity (mites): mites
pest species against which it showed activity (green peach aphid; host apples): green peach aphid
pest species against which it showed activity (green peach aphid; host sugar beet): green peach aphid
pest species against which it showed activity (apple rust mite): apple rust mite
pest species against which it showed activity (green cloverworm): green cloverworm
pest or weed control at 400 ppm [5]: 90 to 100%
mortality at 200 ppm ([6]; rate 200 ppm): 0%
mortality at 400 ppm ([6]; rate 400 ppm): 0%
pest or weed control at 400 ppm [7]: 90 to 100%
pathogens against which compounds of the invention showed activity (Erysiphe sp.): Erysiphe sp.
mortality at 200 ppm ([8]; Tetranychus urticae, foliar, percent mortality, rate 200 ppm, foliar spray on squash, read-out: SM RESULTS %): 90%
mortality at 400 ppm ([8]; Tetranychus urticae, foliar, percent mortality, rate 400 ppm, foliar spray on squash, read-out: SM RESULTS %): 90%
activity as miticides [8, 12]: particularly excellent activity
pest or weed control at 400 ppm [9]: 0 to 19%
mortality at 200 ppm ([10]; rate 200 ppm): 90%
mortality at 400 ppm ([10]; rate 400 ppm): 80%
pest or weed control at 400 ppm ([11]; Pseudoperonospora cubensis, foliar, Test 1, foliar spray on squash, disease control rating at 400 ppm / 100 ppm, read-out: DOWN MDEW): 90 to 100%
activity against downy mildew [11, 12]: particularly excellent activity
mortality at 12 ppm (corn rootworm; CRW rate 12.00 ppm): 40%
mortality at 24 ppm (corn rootworm; CRW rate 24.00 ppm): 0%
